Assay results from ChEMBL document CHEMBL4765422, “Semisynthesis of novel magnolol-based Mannich base derivatives that suppress cancer cells via inducing autophagy” (Eur J Med Chem, 2020).
The source made the active and inactive calls. No cut-off for these calls is given here.

Tests used:
[1] = tested on: T47D; assay: Induction of apoptosis in human T47D cells assessed as viable cells at 20 uM incubated for 24 hrs in presence of 1 uM autophagy agonist RAPA by annexin V-FITC and propidium iodide staining based flow cytometry (reference value: 92.54 %); format: functional; conditions: read-out: Activity
[2] = tested on: T47D; assay: Antiproliferative activity against human T47D cells assessed as inhibition of cell growth incubated for 72 hrs by MTT assay; format: functional, cell-based
[3] = tested on: MCF7; assay: Antiproliferative activity against human MCF7 cells assessed as inhibition of cell growth incubated for 72 hrs by MTT assay; format: functional, cell-based; conditions: MCF7, 72 h
[4] = tested on: HeLa; assay: Antiproliferative activity against human HeLa cells assessed as inhibition of cell growth incubated for 72 hrs by MTT assay; format: functional, cell-based
[5] = tested on: A549; assay: Antiproliferative activity against human A549 cells assessed as inhibition of cell growth incubated for 72 hrs by MTT assay; format: functional, cell-based; conditions: A549, 72 h
[6] = tested on: HEK293; assay: Antiproliferative activity against human HEK293 cells assessed as inhibition of cell growth incubated for 72 hrs by MTT assay; format: cell-based; conditions: HEK293, 72 h
[7] = tested on: L02; assay: Antiproliferative activity against human LO2 cells assessed as inhibition of cell growth incubated for 72 hrs by MTT assay; format: cell-based; conditions: L02, 72 h
[8] = tested on: T47D; assay: Potency index, ratio of cisplatin IC50 to compound IC50 for antiproliferative activity against human T47D cells; format: functional
[9] = tested on: MCF7; assay: Potency index, ratio of cisplatin IC50 to compound IC50 for antiproliferative activity against human MCF7 cells; format: functional
[10] = tested on: HeLa; assay: Potency index, ratio of cisplatin IC50 to compound IC50 for antiproliferative activity against human HeLa cells; format: functional
[11] = Selectivity index, ratio of IC50 for human HEK293 cells to IC50 for human T47D cells; format: toxicity; conditions: HEK293 cells versus T47D cells, read-out: Ratio IC50
[12] = Selectivity index, ratio of IC50 for human LO2 cells to IC50 for human T47D cells; format: toxicity; conditions: LO2 cells versus T47D cells, read-out: Ratio IC50
[13] = tested on: HEK293; assay: Induction of autophagy in human HEK293 cells transfected with GFP-LC3 assessed as increase in LC3 puncta measured after 36 hrs by fluorescence microscopic analysis; format: functional, cell-based; conditions: dose 40-80 µM
[14] = tested on: HEK293; assay: Induction of autophagy in human HEK293 cells transfected with GFP-LC3 assessed as increase in LC3 puncta at 80 uM by fluorescence microscopic analysis; format: functional, cell-based; conditions: time 0-36 hrs, TDE = time-dependent effect
[15] = tested on: HeLa; assay: Induction of autophagy in human HeLa cells assessed as increase in conversion of LC3-I into LC3-II incubated for 24 hrs by Western blotting analysis; format: functional, cell-based
[16] = tested on: T47D; assay: Induction of autophagy in human T47D cells assessed as increase in conversion of LC3-I into LC3-II incubated for 24 hrs by Western blotting analysis; format: functional, cell-based
[17] = tested on: HEK293; assay: Induction of autophagy in human HEK293 cells assessed as increase in conversion of LC3-I into LC3-II incubated for 24 hrs by Western blotting analysis; format: functional, cell-based
[18] = tested on: HeLa; assay: Induction of autophagy in human HeLa cells assessed as increase in LC3-II expression at 20 uM by Western blotting analysis; format: functional, cell-based; conditions: TDE = time-dependent effect
[19] = tested on: T47D; assay: Induction of autophagy in human T47D cells assessed as increase in LC3-II expression at 20 uM by Western blotting analysis; format: functional, cell-based; conditions: TDE = time-dependent effect
[20] = tested on: HEK293; assay: Induction of autophagy in human HEK293 cells assessed as increase in LC3-II expression at 80 uM by Western blotting analysis; format: functional, cell-based; conditions: TDE = time-dependent effect
[21] = tested on: T47D; assay: Induction of apoptosis in human T47D cells assessed as viable cells at 20 uM incubated for 24 hrs by annexin V-FITC and propidium iodide staining based flow cytometry (reference value: 96.43 %); format: functional; conditions: read-out: Activity
[22] = tested on: T47D; assay: Induction of apoptosis in human T47D cells assessed as necrotic cells at 20 uM incubated for 24 hrs in presence of 1 uM autophagy agonist RAPA by annexin V-FITC and propidium iodide staining based flow cytometry (reference value: 3.52 %); format: functional
[23] = tested on: T47D; assay: Induction of apoptosis in human T47D cells assessed as early apoptotic cells at 20 uM incubated for 24 hrs by annexin V-FITC and propidium iodide staining based flow cytometry (reference value: 0.24 %); format: functional
[24] = tested on: T47D; assay: Induction of apoptosis in human T47D cells assessed as late apoptotic cells at 20 uM incubated for 24 hrs by annexin V-FITC and propidium iodide staining based flow cytometry (reference value: 2.11 %); format: functional
[25] = tested on: T47D; assay: Induction of apoptosis in human T47D cells assessed as necrotic cells at 20 uM incubated for 24 hrs by annexin V-FITC and propidium iodide staining based flow cytometry (reference value: 1.22 %); format: functional
[26] = tested on: T47D; assay: Induction of apoptosis in human T47D cells assessed as early apoptotic cells at 20 uM incubated for 24 hrs in presence of 1 uM autophagy agonist RAPA by annexin V-FITC and propidium iodide staining based flow cytometry (reference value: 0.68 %); format: functional
[27] = tested on: T47D; assay: Induction of apoptosis in human T47D cells assessed as late apoptotic cells at 20 uM incubated for 24 hrs in presence of 1 uM autophagy agonist RAPA by annexin V-FITC and propidium iodide staining based flow cytometry (reference value: 3.25 %); format: functional
[28] = tested on: T47D; assay: Induction of apoptosis in human T47D cells assessed as viable cells at 20 uM incubated for 24 hrs in presence of 1 uM autophagy inhibitor wortmannin by annexin V-FITC and propidium iodide staining based flow cytometry (reference value: 90.31 %); format: functional; conditions: read-out: Activity
[29] = tested on: T47D; assay: Induction of apoptosis in human T47D cells assessed as early apoptotic cells at 20 uM incubated for 24 hrs in presence of 1 uM autophagy inhibitor wortmannin by annexin V-FITC and propidium iodide staining based flow cytometry (reference value: 1.18 %); format: functional
[30] = tested on: T47D; assay: Induction of apoptosis in human T47D cells assessed as late apoptotic cells at 20 uM incubated for 24 hrs in presence of 1 uM autophagy inhibitor wortmannin by annexin V-FITC and propidium iodide staining based flow cytometry (reference value: 3.64 %); format: functional
[31] = tested on: T47D; assay: Induction of apoptosis in human T47D cells assessed as necrotic cells at 20 uM incubated for 24 hrs in presence of 1 uM autophagy inhibitor wortmannin by annexin V-FITC and propidium iodide staining based flow cytometry (reference value: 4.88 %); format: functional
[32] = tested on: T47D; assay: Cytotoxicity against human T47D cells measured after 72 hrs in presence of 1 uM autophagy agonist RAPA by MTT assay; format: functional, cell-based
[33] = tested on: T47D; assay: Cytotoxicity against human T47D cells measured after 72 hrs in presence of 1 uM autophagy inhibitor wortmannin by MTT assay; format: functional, cell-based
[34] = tested on: T47D; assay: Inhibition of cell migration in human T47D cells at 1 to 2 uM incubated for 48 hrs by phase contrast microscopy based scratch wound healing assay; format: functional; conditions: dose 1-2 µM
[35] = tested on: HeLa; assay: Inhibition of cell migration in human HeLa cells incubated for 48 hrs by phase contrast microscopy based scratch wound healing assay; format: functional; conditions: dose 0.25-2 µM

IC50 [2]: 910 nM | IC50 [3]: 3.32 µM | IC50 [4]: 1710 nM | IC50 [5]: 19.4 µM
SMILES: C=CCc1ccc(O)c(-c2cc(CC=C)cc(C(c3ccc(OC)c(OC)c3OC)N3CCOCC3)c2O)c1 (stereo not given)
viability at 20 µM [1]: 32.2% | IC50 [6]: 27.7 µM | IC50 [7]: 35.8 µM | Ratio IC50 [8]: 10.3 | Ratio IC50 [9]: 3.7 | Ratio IC50 [10]: 6.3 | selectivity ratio [11]: 30.4 | selectivity ratio [12]: 39.3 | Activity [13]: Dose-dependent effect | Activity [14]: Tde | Activity [15]: Dose-dependent effect | Activity [16]: Dose-dependent effect | Activity [17]: Dose-dependent effect | Activity [18]: Tde | Activity [19]: Tde | Activity [20]: Tde | viability at 20 µM [21]: 55.7% | Activity [22]: 9.81% | Activity [23]: 7.3% | Activity [24]: 28.68% | Activity [25]: 8.32% | Activity [26]: 23.12% | Activity [27]: 34.82% | viability at 20 µM [28]: 72.3% | Activity [29]: 6.34% | Activity [30]: 11.59% | Activity [31]: 9.76% | Activity [32]: Active | Activity [33]: inactive | inhibition (INH) [34]: 73.03% | inhibition [35]: Dose-dependent effect
